The values below come from article PMC10255569, “Discovery of Peptidic Ligands against the SARS-CoV-2 Spike Protein and Their Use in the Development of a Highly Sensitive Personal Use Colorimetric COVID-19 Biosensor” (ACS Sensors, 2023).

Each structure is given as a SMILES string. “Also recorded” adds a separate entry of the source. Non-standard residues stand in square brackets, D forms with d. Residues, ends and D or L forms follow the SMILES beside them. *: point of attachment. Biotin = O=C1N[C@H]2[C@H](CS[C@H]2CCCCC(=O)*)N1; Phe(3,5-F2) = N[C@@H](Cc1cc(F)cc(F)c1)C(=O)O; hCit = NC(=O)NCCCC[C@H](N)C(=O)O; Aad = N[C@@H](CCCC(=O)O)C(=O)O; Nva = CCC[C@H](N)C(=O)O; AEEA = NCCOCCOCC(=O)O

The assay has as its target Delta-variant SARS-CoV-2 spike protein receptor-binding domain (L452R, T478K) (Severe acute respiratory syndrome coronavirus 2, UniProt P0DTC2, L452R/T478K). The arrangement: species or system SARS-CoV-2 Delta variant.

Take `CCC[C@H](NC(=O)[C@H](CCCCNC(N)=O)NC(=O)[C@H](CCCNC(=N)N)NC(=O)[C@H](Cc1ccc(OC)cc1)NC(=O)[C@H](N)Cc1c[nH]cn1)C(=O)N[C@@H](CCCNC(=N)N)C(=O)N[C@@H](Cc1cc(F)cc(F)c1)C(=O)N[C@@H](Cc1ccccc1)C(=O)N[C@@H](CCCC(=O)O)C(=O)NCCOCCOCC(=O)NCCOCCOCC(=O)N[C@@H](CCCCNC(=O)CCCC[C@@H]1SC[C@@H]2NC(=O)N[C@@H]21)C(N)=O` [L10-2] (H-[dH]Y(Me)R[hCit][Nva]R[Phe(3,5-F2)]F[Aad][AEEA][AEEA]K(Biotin)-NH2): the RMax was 0.11 ± 0.004 and the “binding to the Delta variant of spike protein RBD (in words)” value was “able to bind to the Delta variant of spike protein RBD with similar affinity; also recorded: can bind to S-protein from the SARS-CoV-2 Delta variant”.
